ChEMBL document CHEMBL4613219, “Formation of 5α-dihydrotestosterone from 5α-androstane-3α,17β-diol in prostate cancer LAPC-4 cells - Identifying inhibitors of non-classical pathways producing the most potent androgen” (Bioorg Med Chem Lett, 2020)

Tests used:
Conditions in all cases: LAPC4, 24 h
LAPC4 [1] = assay: Inhibition of 3-alpha-diol conversion to 5-alpha-dihydrotestosterone in human LAPC4 cells assessed in 100000 cells at 10 uM measured after 24 hrs using [14C]-3-alpha-diol/[14C]-3-beta-diol (9:1) as non-radiolabeled/radiolabeled 20:1 mixture by TLC analysis relative to control; type: functional
LAPC4 [2] = assay: Inhibition of 3-alpha-diol conversion to 5-alpha-dihydrotestosterone in human LAPC4 cells assessed in 100000 cells at 3 uM measured after 24 hrs using [14C]-3-alpha-diol/[14C]-3-beta-diol (9:1) as non-radiolabeled/radiolabeled 20:1 mixture by TLC analysis relative to control; type: functional
LAPC4 [3] = assay: Inhibition of 3-alpha-diol conversion to 5-alpha-dihydrotestosterone in human LAPC4 cells assessed in 200000 cells at 10 uM measured after 24 hrs using [14C]-3-alpha-diol/[14C]-3-beta-diol (9:1) as non-radiolabeled/radiolabeled 20:1 mixture by TLC analysis relative to control; type: functional
LAPC4 [4] = assay: Inhibition of 3-alpha-diol conversion to 5-alpha-dihydrotestosterone in human LAPC4 cells assessed in 200000 cells at 3 uM measured after 24 hrs using [14C]-3-alpha-diol/[14C]-3-beta-diol (9:1) as non-radiolabeled/radiolabeled 20:1 mixture by TLC analysis relative to control; type: functional
LAPC4 [5] = assay: Inhibition of 3-alpha-diol conversion to 5-alpha-dihydrotestosterone in human LAPC4 cells assessed in 200000 cells measured after 24 hrs using [14C]-3-alpha-diol/[14C]-3-beta-diol (9:1) as non-radiolabeled/radiolabeled 20:1 mixture by TLC analysis; type: functional, cell-based

| Compound | inhibition at 10 µM (LAPC4 [1]) | inhibition at 3 µM (LAPC4 [2]) | inhibition at 10 µM (LAPC4 [3]) | inhibition at 3 µM (LAPC4 [4]) | IC50 (LAPC4 [5]) |
| --- | --- | --- | --- | --- | --- |
| COc1cccc(CN2CCN(C[C@@]3(O)CC[C@@]4(C)[C@@H](CC[C@@H]5[C@@H]4CC[C@]4(C)C(=O)CC[C@@H]54)C3)CC2)c1 | 42.5% | 21.5% | – | – | – |
| COc1cccc(CN2CCN(C[C@@]3(O)CC[C@@]4(C)[C@@H](CC[C@@H]5[C@@H]4CC[C@]4(C)[C@H](O)CC[C@@H]54)C3)CC2)c1 | 27.6% | 9.5% | – | – | – |
| C[C@]12CC[C@](O)(CN3CCN(C(=S)NCc4cccc(C(F)(F)F)c4)CC3)C[C@@H]1CC[C@@H]1[C@@H]2CC[C@]2(C)C(=O)CC[C@@H]12 | 49.7% | 27% | 57.7% | 47.7% | 3.6 µM |
| COc1cccc(CN2CCN(C[C@@]3(O)CC[C@@]4(C)[C@@H](CC[C@@H]5[C@@H]4CC[C@@]4(C)[C@H]5CC[C@]4(C)O)C3)CC2)c1 | 36.5% | 17.8% | – | – | – |
| COc1cccc(CN2CCN(C[C@@]3(O)CC[C@@]4(C)[C@@H](CC[C@@H]5[C@@H]4CC[C@@]4(C)[C@H]5CCC4(F)F)C3)CC2)c1 | 49.7% | 33.7% | – | – | – |
| C#C[C@]1(O)CC[C@H]2[C@@H]3CC[C@H]4C[C@@](O)(CN5CCN(Cc6cccc(OC)c6)CC5)CC[C@]4(C)[C@H]3CC[C@@]21C | 44.2% | 35.4% | – | – | – |
| COc1cc(CN2CCN(C[C@@]3(O)CC[C@@]4(C)[C@@H](CC[C@@H]5[C@@H]4CC[C@]4(C)C(=O)CC[C@@H]54)C3)CC2)ccc1C | 49% | 22.3% | – | – | – |
| CN(C)S(=O)(=O)c1ccc(NC(=S)N2CCN(C[C@@]3(O)CC[C@@]4(C)[C@@H](CC[C@@H]5[C@@H]4CC[C@]4(C)C(=O)CC[C@@H]54)C3)CC2)cc1 | 31.7% | 14.3% | – | – | – |
| COc1cccc(CN2CCN(C[C@@]3(O)CC[C@@]4(C)[C@@H](CC[C@@H]5[C@@H]4CC[C@]4(C)[C@@H](O)CC[C@@H]54)C3)CC2)c1 | 28.3% | 21.2% | – | – | – |
| COc1cccc(CN2CCN(C[C@@]3(O)CC[C@@]4(C)[C@@H](CC[C@@H]5[C@@H]4CC[C@]4(C)C(=O)C(C)(C)C[C@@H]54)C3)CC2)c1 | 21.5% | 11.8% | – | – | – |
| CCN(C)S(=O)(=O)N1CCN(C[C@@]2(O)CC[C@@]3(C)[C@@H](CC[C@@H]4[C@@H]3CC[C@]3(C)C(=O)CC[C@@H]43)C2)CC1 | 3.3% | 0% | – | – | – |
| CC(=O)c1cccc(CN2CCN(C[C@@]3(O)CC[C@@]4(C)[C@@H](CC[C@@H]5[C@@H]4CC[C@]4(C)C(=O)CC[C@@H]54)C3)CC2)c1 | 15.5% | 3.7% | – | – | – |
| C#C[C@]1(O)CC[C@H]2[C@@H]3CC[C@H]4C[C@@](O)(CN5CCN(Cc6ccc(C(F)(F)F)c(OC)c6)CC5)CC[C@]4(C)[C@H]3CC[C@@]21C | – | – | 88.8% | 74% | 1.2 µM |
| COc1cc(CN2CCN(C[C@@]3(O)CC[C@@]4(C)[C@@H](CC[C@@H]5[C@@H]4CC[C@]4(C)C(=O)CC[C@@H]54)C3)CC2)cc(C(F)(F)F)c1 | – | – | 62.9% | 46.8% | 3.7 µM |
| COc1ccc(C(F)(F)F)c(N2CCN(C[C@@]3(O)CC[C@@]4(C)[C@@H](CC[C@@H]5[C@@H]4CC[C@]4(C)C(=O)CC[C@@H]54)C3)CC2)c1 | – | – | 48% | 27.6% | – |
| COc1cc(C)ccc1CN1CCN(C[C@@]2(O)CC[C@@]3(C)[C@@H](CC[C@@H]4[C@@H]3CC[C@]3(C)C(=O)CC[C@@H]43)C2)CC1 | 51.2% | 12.2% | – | – | – |
| C[C@]12CC[C@](O)(CN3CCN(S(=O)(=O)c4ccc5ccccc5c4)CC3)C[C@@H]1CC[C@@H]1[C@@H]2CC[C@]2(C)C(=O)CC[C@@H]12 | – | – | 19.1% | 0.1% | – |
| C[C@]12CCC(O)C[C@@H]1CC[C@@H]1[C@@H]2CC[C@]2(C)[C@@H](O)CC[C@@H]12 (stereo not given in full) | 79.3% | 46.9% | 87% | 73.6% | 0.56 µM |
| C[C@]12CC[C@](O)(CN3CCN(C(=S)Nc4ccc5ccccc5c4)CC3)C[C@@H]1CC[C@@H]1[C@@H]2CC[C@]2(C)C(=O)CC[C@@H]12 | – | – | 42.1% | 41.1% | – |
| C[C@]12CC[C@](O)(CN3CCN(Cc4ccc5ccccc5n4)CC3)C[C@@H]1CC[C@@H]1[C@@H]2CC[C@]2(C)C(=O)CC[C@@H]12 | 27.4% | 8.4% | – | – | – |
| C[C@]12CC[C@](O)(CN3CCN(Cc4ccc5ccccc5c4)CC3)C[C@@H]1CC[C@@H]1[C@@H]2CC[C@]2(C)C(=O)CC[C@@H]12 | – | – | 51.4% | 30.1% | – |
| C#C[C@]1(O)CC[C@H]2[C@@H]3CC[C@H]4C[C@@](O)(CN5CCN(Cc6cccc(OC)c6C(F)(F)F)CC5)CC[C@]4(C)[C@H]3CC[C@@]21C | – | – | 56.2% | 44.3% | 14.1 µM |
| COc1cc(CN2CCN(C[C@@]3(O)CC[C@@]4(C)[C@@H](CC[C@@H]5[C@@H]4CC[C@]4(C)C(=O)CC[C@@H]54)C3)CC2)ccc1C(F)(F)F | – | – | – | – | 8 µM |
| C[C@]12CC[C@](O)(CN3CCN(C(=O)c4ccc5ccccc5c4)CC3)C[C@@H]1CC[C@@H]1[C@@H]2CC[C@]2(C)C(=O)CC[C@@H]12 | – | – | 65.3% | 43.6% | 6.1 µM |
| COc1cc(N2CCN(C[C@@]3(O)CC[C@@]4(C)[C@@H](CC[C@@H]5[C@@H]4CC[C@]4(C)C(=O)CC[C@@H]54)C3)CC2)ccc1F | – | – | 37.2% | 21.4% | – |
| COc1cc(N2CCN(C[C@@]3(O)CC[C@@]4(C)[C@@H](CC[C@@H]5[C@@H]4CC[C@]4(C)C(=O)CC[C@@H]54)C3)CC2)ccc1C(F)(F)F | 55.6% | 33.7% | 63.2% | 37.4% | – |
| C[C@]12CC[C@@H](O)C[C@@H]1CC[C@@H]1[C@@H]2CC[C@]2(C)C(=O)CC[C@@H]12 [ANDROSTERONE] | – | – | 83.8% | 85.7% | – |
